Tests used:
[1] = biological target: Myosin light chain kinase 2, skeletal/cardiac muscle (Homo sapiens) (UniProt Q9H1R3); assay: Inhibition of wild-type human partial length MYLK2 (D258 to K570 residues) expressed in bacterial expression system at 1 uM by Kinomescan method relative to control
[2] = biological target: Phosphatidylinositol 4,5-bisphosphate 3-kinase catalytic subunit alpha isoform (Homo sapiens) (UniProt P42336); assay: Inhibition of wild-type human partial length PIK3CA (R108 to N1068 residues) expressed in mammalian expression system at 1 uM by Kinomescan method relative to control
[3] = biological target: Casein kinase I isoform gamma-3 (Homo sapiens) (UniProt Q9Y6M4); assay: Inhibition of wild-type human full length CSNK1G3 (M1 to K447 residues) expressed in bacterial expression system at 1 uM by Kinomescan method relative to control
[4] = biological target: Serine/threonine-protein kinase 36 (Homo sapiens) (UniProt Q9NRP7); assay: Inhibition of wild-type human partial length STK36 (M1 to T271 residues) expressed in bacterial expression system at 1 uM by Kinomescan method relative to control
[5] = test system: Epidermal growth factor receptor (Homo sapiens), P00533 [UNDEFINED MUTATION]; assay: Inhibition of human partial length EGFR L747-S752del/P753S mutant expressed in bacterial expression system at 1 uM by Kinomescan method relative to control
[6] = test system: Tyrosine-protein kinase ABL1 (Homo sapiens), P00519 [H396P]; assay: Inhibition of human non-phosphorylated ABL1 H396P mutant (S229 to K512 residues) expressed in mammalian expression system at 1 uM by Kinomescan method relative to control
[7] = biological target: Activin receptor type-1B (Homo sapiens) (UniProt P36896); assay: Inhibition of wild-type human ACVR1B (S187 to I505 residues) expressed in bacterial expression system at 1 uM by Kinomescan method relative to control
[8] = biological target: Hormonally up-regulated neu tumor-associated kinase (Homo sapiens) (UniProt P57058); assay: Inhibition of wild-type human partial length HUNK (A31 to K354 residues) expressed in bacterial expression system at 1 uM by Kinomescan method relative to control
[9] = biological target: Serine/threonine-protein kinase PAK 3 (Homo sapiens) (UniProt O75914); assay: Inhibition of wild-type human full length PAK3 (M1 to R544 residues) expressed in bacterial expression system at 1 uM by Kinomescan method relative to control
[10] = biological target: Receptor-type tyrosine-protein kinase FLT3 (Homo sapiens) (UniProt P36888); assay: Inhibition of wild-type human partial length autoinhibited FLT3 (H564 to Y969 residues) expressed in mammalian expression system at 1 uM by Kinomescan method relative to control
[11] = biological target: Calcium/calmodulin-dependent protein kinase kinase 1 (Homo sapiens) (UniProt Q8N5S9); assay: Inhibition of wild-type human partial length CAMKK1 (R65 to E414 residues) expressed in bacterial expression system at 1 uM by Kinomescan method relative to control
[12] = biological target: SRSF protein kinase 2 (Homo sapiens) (UniProt P78362); assay: Inhibition of wild-type human full length SRPK2 (M1 to S686 residues) expressed in bacterial expression system at 1 uM by Kinomescan method relative to control
[13] = biological target: Insulin receptor-related protein (Homo sapiens) (UniProt P14616); assay: Inhibition of wild-type human partial length INSRR (R950 to E1278 residues) expressed in bacterial expression system at 1 uM by Kinomescan method relative to control
[14] = biological target: Serine/threonine-protein kinase 32B (Homo sapiens) (UniProt Q9NY57); assay: Inhibition of wild-type human full length YANK2 (M1 to S414 residues) expressed in bacterial expression system at 1 uM by Kinomescan method relative to control
[15] = biological target: Tyrosine-protein kinase Srms (Homo sapiens) (UniProt Q9H3Y6); assay: Inhibition of wild-type human partial length SRMS (L208 to P488 residues) expressed in mammalian expression system at 10 uM by Kinomescan method relative to control
[16] = biological target: Serine/threonine-protein kinase VRK2 (Homo sapiens) (UniProt Q86Y07); assay: Inhibition of wild-type human partial length VRK2 (M1 to T336 residues) expressed in mammalian expression system at 10 uM by Kinomescan method relative to control
[17] = biological target: Tyrosine-protein kinase FRK (Homo sapiens) (UniProt P42685); assay: Inhibition of wild-type human partial length FRK (A215 to F503 residues) expressed in bacterial expression system at 10 uM by Kinomescan method relative to control
[18] = biological target: Mitogen-activated protein kinase kinase kinase 20 (Homo sapiens) (UniProt Q9NYL2); assay: Inhibition of wild-type human partial length ZAK (M1 to L331 residues) expressed in bacterial expression system at 10 uM by Kinomescan method relative to control
[19] = biological target: Serine/threonine-protein kinase LATS1 (Homo sapiens) (UniProt O95835); assay: Inhibition of wild-type human partial length LATS1 (Q678 to V1130 residues) expressed in bacterial expression system at 10 uM by Kinomescan method relative to control
[20] = biological target: Calcium/calmodulin-dependent protein kinase type 1G (Homo sapiens) (UniProt Q96NX5); assay: Inhibition of wild-type human partial length CAMK1G (M1 to A342 residues) expressed in bacterial expression system at 10 uM by Kinomescan method relative to control
[21] = biological target: Dual specificity mitogen-activated protein kinase kinase 1 (Homo sapiens) (UniProt Q02750); assay: Inhibition of wild-type human full length MEK1 (M1 to V393 residues) expressed in mammalian expression system at 10 uM by Kinomescan method relative to control
[22] = biological target: Tyrosine-protein kinase Tec (Homo sapiens) (UniProt P42680); assay: Inhibition of wild-type human partial length TEC (L341 to D620 residues) expressed in bacterial expression system at 10 uM by Kinomescan method relative to control
[23] = biological target: Activin receptor type-2B (Homo sapiens) (UniProt Q13705); assay: Inhibition of wild-type human ACVR2B (H169 to D504 residues) expressed in bacterial expression system at 10 uM by Kinomescan method relative to control
[24] = biological target: Receptor-interacting serine/threonine-protein kinase 2 (Homo sapiens) (UniProt O43353); assay: Inhibition of wild-type human partial length RIPK2 (M1 to K310 residues) expressed in bacterial expression system at 10 uM by Kinomescan method relative to control
[25] = test system: Mast/stem cell growth factor receptor Kit (Homo sapiens), P10721 [D816V]; assay: Inhibition of human partial length KIT D816V mutant (I571 to D952 residues) expressed in bacterial expression system at 10 uM by Kinomescan method relative to control
[26] = biological target: Tyrosine-protein kinase receptor TYRO3 (Homo sapiens) (UniProt Q06418); assay: Inhibition of wild-type human partial length TYRO3 (S497 to T814 residues) expressed in bacterial expression system at 10 uM by Kinomescan method relative to control
[27] = biological target: Serine/threonine-protein kinase N2 (Homo sapiens) (UniProt Q16513); assay: Inhibition of wild-type human partial length PKN2 (E634 to C984 residues) expressed in bacterial expression system at 10 uM by Kinomescan method relative to control

Chain of Serine/threonine-protein kinase LATS1 (Homo sapiens) (O95835 whole entry, the tested form may be a part): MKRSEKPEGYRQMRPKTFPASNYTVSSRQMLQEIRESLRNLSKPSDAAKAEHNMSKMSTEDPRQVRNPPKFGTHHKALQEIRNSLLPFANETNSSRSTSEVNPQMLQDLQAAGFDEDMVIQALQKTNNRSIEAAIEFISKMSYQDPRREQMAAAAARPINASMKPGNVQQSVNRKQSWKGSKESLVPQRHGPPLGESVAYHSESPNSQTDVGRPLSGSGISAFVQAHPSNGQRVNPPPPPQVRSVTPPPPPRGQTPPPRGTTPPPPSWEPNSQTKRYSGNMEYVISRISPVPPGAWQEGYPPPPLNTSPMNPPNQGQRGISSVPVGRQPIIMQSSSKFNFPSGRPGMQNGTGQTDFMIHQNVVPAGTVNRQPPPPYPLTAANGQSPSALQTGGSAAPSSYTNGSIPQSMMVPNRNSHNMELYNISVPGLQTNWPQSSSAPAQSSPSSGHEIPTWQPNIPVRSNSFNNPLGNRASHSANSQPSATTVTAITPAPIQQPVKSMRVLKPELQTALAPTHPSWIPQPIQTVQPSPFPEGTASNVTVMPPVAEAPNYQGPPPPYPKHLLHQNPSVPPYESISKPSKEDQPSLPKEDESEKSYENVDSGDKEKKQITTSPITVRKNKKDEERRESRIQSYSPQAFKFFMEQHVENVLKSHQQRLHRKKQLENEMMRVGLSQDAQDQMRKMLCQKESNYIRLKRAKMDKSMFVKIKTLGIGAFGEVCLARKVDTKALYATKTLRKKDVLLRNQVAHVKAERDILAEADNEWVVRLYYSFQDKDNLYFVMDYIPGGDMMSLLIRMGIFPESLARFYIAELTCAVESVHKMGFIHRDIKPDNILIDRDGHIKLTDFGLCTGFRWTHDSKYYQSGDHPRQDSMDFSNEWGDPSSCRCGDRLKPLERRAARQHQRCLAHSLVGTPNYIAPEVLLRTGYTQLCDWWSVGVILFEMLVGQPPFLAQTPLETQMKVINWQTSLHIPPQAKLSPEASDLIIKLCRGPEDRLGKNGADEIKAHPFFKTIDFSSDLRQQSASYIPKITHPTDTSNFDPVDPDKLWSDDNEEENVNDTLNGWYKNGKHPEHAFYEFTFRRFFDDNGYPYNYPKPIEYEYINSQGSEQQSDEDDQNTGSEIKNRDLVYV
Chain of Receptor-interacting serine/threonine-protein kinase 2 (Homo sapiens) (O43353 whole entry, the tested form may be a part): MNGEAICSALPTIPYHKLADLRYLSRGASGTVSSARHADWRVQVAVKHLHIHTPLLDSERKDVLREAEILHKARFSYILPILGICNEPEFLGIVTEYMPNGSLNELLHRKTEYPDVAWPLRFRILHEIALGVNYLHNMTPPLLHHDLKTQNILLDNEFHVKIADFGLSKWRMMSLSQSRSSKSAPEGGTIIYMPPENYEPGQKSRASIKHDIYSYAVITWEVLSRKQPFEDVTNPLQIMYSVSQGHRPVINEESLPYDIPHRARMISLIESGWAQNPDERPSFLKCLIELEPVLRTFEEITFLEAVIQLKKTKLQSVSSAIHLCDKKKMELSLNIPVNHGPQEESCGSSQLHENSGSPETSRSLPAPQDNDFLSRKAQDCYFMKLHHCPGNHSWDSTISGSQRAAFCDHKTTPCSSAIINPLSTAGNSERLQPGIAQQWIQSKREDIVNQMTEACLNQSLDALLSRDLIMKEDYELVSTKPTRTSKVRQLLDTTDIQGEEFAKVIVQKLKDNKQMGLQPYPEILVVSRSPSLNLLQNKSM
Chain of Mitogen-activated protein kinase kinase kinase 20 (Homo sapiens) (Q9NYL2 2-800 limits assumed): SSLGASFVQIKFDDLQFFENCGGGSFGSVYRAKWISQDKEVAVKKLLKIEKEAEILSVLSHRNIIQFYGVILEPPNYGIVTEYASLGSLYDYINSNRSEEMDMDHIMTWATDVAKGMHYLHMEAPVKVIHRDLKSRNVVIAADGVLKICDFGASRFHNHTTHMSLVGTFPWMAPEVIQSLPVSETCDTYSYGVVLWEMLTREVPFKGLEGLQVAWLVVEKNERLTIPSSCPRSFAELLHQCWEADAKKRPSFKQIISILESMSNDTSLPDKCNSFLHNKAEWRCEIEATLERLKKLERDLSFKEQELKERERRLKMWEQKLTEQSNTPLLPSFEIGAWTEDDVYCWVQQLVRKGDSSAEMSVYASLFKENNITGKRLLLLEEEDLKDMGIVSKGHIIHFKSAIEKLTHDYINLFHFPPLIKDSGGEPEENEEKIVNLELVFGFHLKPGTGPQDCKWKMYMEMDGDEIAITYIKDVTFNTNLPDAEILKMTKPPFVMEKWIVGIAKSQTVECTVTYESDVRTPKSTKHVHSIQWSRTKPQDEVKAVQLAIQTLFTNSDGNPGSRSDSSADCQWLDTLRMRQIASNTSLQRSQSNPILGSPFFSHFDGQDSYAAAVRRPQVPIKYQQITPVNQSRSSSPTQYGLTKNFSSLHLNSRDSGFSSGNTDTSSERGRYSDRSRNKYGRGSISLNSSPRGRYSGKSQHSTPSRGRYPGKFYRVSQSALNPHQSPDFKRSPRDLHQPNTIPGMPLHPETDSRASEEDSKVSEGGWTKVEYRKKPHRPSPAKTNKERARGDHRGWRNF
Chain of Serine/threonine-protein kinase 32B (Homo sapiens) (Q9NY57 whole entry, the tested form may be a part): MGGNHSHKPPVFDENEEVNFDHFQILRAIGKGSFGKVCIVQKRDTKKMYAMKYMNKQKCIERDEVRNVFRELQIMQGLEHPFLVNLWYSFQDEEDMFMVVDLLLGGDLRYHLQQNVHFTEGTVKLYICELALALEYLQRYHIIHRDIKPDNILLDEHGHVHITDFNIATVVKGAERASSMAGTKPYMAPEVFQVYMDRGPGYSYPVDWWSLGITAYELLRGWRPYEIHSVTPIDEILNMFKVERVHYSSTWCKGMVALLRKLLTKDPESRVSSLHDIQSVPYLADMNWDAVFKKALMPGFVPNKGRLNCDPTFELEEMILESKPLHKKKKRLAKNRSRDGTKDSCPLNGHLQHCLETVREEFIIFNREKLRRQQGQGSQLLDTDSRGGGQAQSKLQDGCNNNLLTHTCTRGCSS
Chain of Mast/stem cell growth factor receptor Kit (Homo sapiens), P10721 [D816V] (P10721 whole entry D816V, the tested form may be a part): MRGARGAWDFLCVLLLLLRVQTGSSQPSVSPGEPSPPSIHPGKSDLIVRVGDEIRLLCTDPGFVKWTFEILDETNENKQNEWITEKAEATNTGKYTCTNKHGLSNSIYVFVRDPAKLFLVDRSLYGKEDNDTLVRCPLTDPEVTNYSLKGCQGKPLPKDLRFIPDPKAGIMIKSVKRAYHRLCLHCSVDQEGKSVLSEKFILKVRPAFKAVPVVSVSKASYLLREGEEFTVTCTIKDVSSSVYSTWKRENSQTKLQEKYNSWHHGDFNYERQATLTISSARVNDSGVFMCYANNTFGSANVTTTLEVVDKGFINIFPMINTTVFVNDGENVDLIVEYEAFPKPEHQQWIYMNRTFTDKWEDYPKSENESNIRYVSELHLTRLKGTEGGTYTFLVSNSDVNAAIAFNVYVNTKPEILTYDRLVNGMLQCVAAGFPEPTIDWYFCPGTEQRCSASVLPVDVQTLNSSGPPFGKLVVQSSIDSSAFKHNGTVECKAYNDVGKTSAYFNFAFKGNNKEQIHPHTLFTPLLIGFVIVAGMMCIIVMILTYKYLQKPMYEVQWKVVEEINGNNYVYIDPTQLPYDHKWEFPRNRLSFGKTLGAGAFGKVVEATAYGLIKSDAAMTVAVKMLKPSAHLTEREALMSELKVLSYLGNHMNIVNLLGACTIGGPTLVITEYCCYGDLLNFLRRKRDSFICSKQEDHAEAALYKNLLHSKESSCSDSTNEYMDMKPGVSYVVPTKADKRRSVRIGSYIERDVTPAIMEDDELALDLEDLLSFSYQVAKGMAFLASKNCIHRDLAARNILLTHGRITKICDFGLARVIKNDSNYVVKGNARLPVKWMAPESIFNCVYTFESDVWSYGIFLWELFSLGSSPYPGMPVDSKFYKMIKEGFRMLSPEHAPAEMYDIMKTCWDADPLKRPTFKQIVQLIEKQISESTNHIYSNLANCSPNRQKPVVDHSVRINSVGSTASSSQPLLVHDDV
Chain of Serine/threonine-protein kinase VRK2 (Homo sapiens) (Q86Y07 whole entry, the tested form may be a part): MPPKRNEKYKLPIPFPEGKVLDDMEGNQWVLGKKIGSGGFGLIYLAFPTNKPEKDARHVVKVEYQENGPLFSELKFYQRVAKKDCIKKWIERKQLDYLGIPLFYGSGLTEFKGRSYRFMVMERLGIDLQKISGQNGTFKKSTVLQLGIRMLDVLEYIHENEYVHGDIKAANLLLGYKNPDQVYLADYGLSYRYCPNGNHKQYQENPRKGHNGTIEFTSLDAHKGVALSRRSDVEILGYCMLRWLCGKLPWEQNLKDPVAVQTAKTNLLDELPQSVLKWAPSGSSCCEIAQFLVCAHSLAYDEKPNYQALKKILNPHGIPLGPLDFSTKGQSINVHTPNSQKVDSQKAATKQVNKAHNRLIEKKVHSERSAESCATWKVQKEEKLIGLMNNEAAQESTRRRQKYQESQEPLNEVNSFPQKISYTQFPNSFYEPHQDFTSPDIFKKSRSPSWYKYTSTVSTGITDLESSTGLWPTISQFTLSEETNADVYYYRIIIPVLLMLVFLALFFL
Chain of Myosin light chain kinase 2, skeletal/cardiac muscle (Homo sapiens) (Q9H1R3 whole entry, the tested form may be a part, canonical isoform): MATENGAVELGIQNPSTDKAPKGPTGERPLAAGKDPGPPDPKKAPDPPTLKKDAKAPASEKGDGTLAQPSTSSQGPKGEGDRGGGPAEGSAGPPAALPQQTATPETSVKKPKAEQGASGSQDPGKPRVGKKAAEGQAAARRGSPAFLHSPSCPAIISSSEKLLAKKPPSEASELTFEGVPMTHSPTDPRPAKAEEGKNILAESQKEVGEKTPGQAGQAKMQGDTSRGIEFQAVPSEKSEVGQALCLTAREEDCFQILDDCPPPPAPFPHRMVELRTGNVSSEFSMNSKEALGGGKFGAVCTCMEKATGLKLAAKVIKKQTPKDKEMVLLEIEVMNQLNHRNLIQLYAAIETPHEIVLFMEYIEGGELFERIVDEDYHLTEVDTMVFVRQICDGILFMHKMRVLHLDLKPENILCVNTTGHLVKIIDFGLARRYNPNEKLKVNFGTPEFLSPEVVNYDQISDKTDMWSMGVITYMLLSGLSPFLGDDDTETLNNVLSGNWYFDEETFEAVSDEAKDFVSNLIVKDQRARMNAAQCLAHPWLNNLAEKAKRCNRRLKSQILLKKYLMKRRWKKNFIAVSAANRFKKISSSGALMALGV

O=C(Nc1cccc([C@@H]2CN(c3ncnc4[nH]ccc34)CCN2CCO)c1)Nc1c(F)cccc1N1CCCC1
inhibition [1]: 100%
inhibition [2]: 100%
inhibition [3]: 94%
inhibition [4]: 100%
inhibition [5]: 100%
inhibition [6]: 96%
inhibition [7]: 83%
inhibition [8]: 100%
inhibition [9]: 72%
inhibition [10]: 68%
inhibition [11]: 100%
inhibition [12]: 88%
inhibition [13]: 100%
inhibition [14]: 100%

O=C(Nc1cccc([C@H]2CCCN(c3ncnc4[nH]ccc34)C2)c1)Nc1ccccc1N1CCCC1
inhibition [15]: 65%
inhibition [16]: 93%
inhibition [17]: 96%
inhibition [18]: 100%
inhibition [19]: 14%
inhibition [20]: 85%
inhibition [21]: 14%
inhibition [22]: 73%
inhibition [23]: 100%
inhibition [24]: 100%
inhibition [25]: 0.9%
inhibition [26]: 100%
inhibition [27]: 32%
